Target: MET (Homo sapiens, UniProt P08581)
Assay: pMET (Y1234/[…]) immunoblot densitometry in MET-amplified H1993 and EBC-1 cells, […] h dose response
Format: cell-based

Sequence of MET (P08581 25-307): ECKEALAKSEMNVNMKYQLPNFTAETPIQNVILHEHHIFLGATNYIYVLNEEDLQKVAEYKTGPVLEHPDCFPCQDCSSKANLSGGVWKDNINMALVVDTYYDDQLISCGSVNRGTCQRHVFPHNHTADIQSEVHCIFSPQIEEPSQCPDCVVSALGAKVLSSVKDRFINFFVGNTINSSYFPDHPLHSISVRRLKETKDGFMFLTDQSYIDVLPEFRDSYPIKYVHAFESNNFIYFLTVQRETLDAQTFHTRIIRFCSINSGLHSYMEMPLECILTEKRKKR
Sequence of MET (P08581 308-1390): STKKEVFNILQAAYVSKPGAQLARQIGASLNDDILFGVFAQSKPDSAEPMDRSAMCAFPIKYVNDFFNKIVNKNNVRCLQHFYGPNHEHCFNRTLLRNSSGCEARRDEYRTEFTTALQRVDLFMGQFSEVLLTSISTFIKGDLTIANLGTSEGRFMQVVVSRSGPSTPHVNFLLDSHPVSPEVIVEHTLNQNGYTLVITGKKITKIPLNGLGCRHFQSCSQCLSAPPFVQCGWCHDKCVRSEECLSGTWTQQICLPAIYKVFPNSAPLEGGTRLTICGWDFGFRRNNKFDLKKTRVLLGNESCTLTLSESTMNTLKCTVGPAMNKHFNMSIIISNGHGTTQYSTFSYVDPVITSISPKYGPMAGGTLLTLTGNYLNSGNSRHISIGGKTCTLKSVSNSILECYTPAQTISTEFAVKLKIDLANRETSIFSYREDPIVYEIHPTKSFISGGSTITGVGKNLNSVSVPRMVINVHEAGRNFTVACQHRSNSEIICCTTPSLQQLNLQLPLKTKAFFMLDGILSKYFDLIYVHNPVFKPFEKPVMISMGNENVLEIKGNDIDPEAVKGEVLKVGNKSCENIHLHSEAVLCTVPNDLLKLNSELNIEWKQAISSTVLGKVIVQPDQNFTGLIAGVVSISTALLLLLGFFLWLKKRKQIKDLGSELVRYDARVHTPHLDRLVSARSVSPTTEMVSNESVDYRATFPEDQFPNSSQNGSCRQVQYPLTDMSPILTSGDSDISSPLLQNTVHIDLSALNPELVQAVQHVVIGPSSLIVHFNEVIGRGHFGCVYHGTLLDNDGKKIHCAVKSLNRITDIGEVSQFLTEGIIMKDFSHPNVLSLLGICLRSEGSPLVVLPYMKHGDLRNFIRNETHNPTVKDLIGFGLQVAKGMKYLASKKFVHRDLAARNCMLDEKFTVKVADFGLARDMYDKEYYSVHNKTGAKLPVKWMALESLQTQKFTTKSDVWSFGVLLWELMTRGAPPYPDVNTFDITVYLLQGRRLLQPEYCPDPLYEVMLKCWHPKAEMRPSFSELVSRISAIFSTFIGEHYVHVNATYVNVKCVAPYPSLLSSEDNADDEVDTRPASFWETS

SMILES: C[C@@H](c1ccc2nccn2c1)n1nnc2ncc(-c3cnn(C)c3)nc21 [savolitinib, (S)-1-(1-(Imidazo[1,2-a]pyridin-6-yl)ethyl)-6-(1-methyl-1H-pyrazol-4-yl)-1H-[1,2, 3]triazolo[4,5-b]pyrazine]
- IC50: 4.12 nM
